Measured values reported in patent publication US10288604B2, “Method for imaging cell using fluorescence-labeled sugar derivative having coumarin derivative bound thereto, and imaging agent” (HIROSAKI UNIVERSITY, priority 2012, dated 2019).

System: tumor cell cluster composed of mouse insulinoma cells (MIN6)
Assay: Imaging of tumor cell cluster composed of MIN6 cells (real time laser scanning confocal microscope)
Type: cell-based
Description: A culture solution prepared by suspending MIN6 cells at a proportion of 10×10^4 cells/mL was dropped in an amount of 10 μL on a glass cover slip, then, allowed to adhere to the glass surface, and 3 mL of the culture solution was added and cultured. The half quantity of the culture solution was changed every three days.
Cryopreserved MIN6 cells (cells donated from Professor Miyazaki Junichi of Osaka University and cultured 5 to 8 passages) were subjected to culture according to an ordinary method, and cultured 7 to 9 passages which were used in experiments. The half amount of the culture solution was changed every two days.
NaCl 120.0 mM, KCl 4.75 mM, KH2 PO4 1.19 mM, MgSO4.7H2O 1.19 mM, CaCl2.2H2O 1 mM, NaHCO3 5.02 mM, D-Glucose 5.6 mM, HEPES 10 mM (adjusted to pH 7.35 with 1M NaOH). For inhibiting entrance and elimination of fluorescently labeled glucose via a gap junction/hemichannel, 0.1 mM Carbenoxolone (SIGMA #C4790) was added. The HEPES solution for image acquisition was used as a solution for preparing a 2-PBLG solution and as a solution for preparing a 2-PBLG/2-TRLG solution and 2-PBLG/2-NBDLG/2-TRLG solution.
A glass cover slip wherein MIN6 cells had been cultured was transferred into a HEPES solution for image acquisition in a perfusion chamber set on a universal stage (Leica 11600234) on a confocal laser scanning microscope (TCS SP5 available from Leica), and adhered gently and tightly to the glass surface at the bottom of the chamber. […] Further, there is an excellent effect that in the space sandwiched by the metal guides, the perfusion solution flows smoothly as a laminar flow and quick solution exchange is possible.
A perfusion solution feeding system is equipped with one 60 mL cylinder for a control solution and five 10 mL cylinders for agent feeding, which can be switched as needed by a magnetic valve to allow perfusion. In experiments according to the present invention, a 5.6 mM glucose-containing HEPES solution for image acquisition was administered using the 60 mL cylinder and a mixed solution of 2-PBLG/2-NBDLG/2-TRLG, a mixed solution of 2-PBDG/2-TRLG, or a mixed solution of 2-PBLG/2-TRLG was administered using one of the five 10 mL cylinders. As described below, to avoid generation of bubbles in the perfusion chamber, both the solutions were heated beforehand, combined in one tube before being introduced into the perfusion chamber, the flow rate thereof being controlled by a flow rate controller, then, heated again by an inline heater and fed to the perfusion chamber on the confocal microscope.
A laser scan confocal microscope (manufactured by Leica, TCS-SP5 system, microscope body is DMI6000 CS trino electromotive inverted microscope) was used in conventional mode. Regarding laser used, a 405 nm diode laser was used for excitation of 2-PBLG and 2-PBDG, excitation of a mixed solution of 2-PBLG (or 2-PBDG) and 2-TRLG with a single light source, or live staining of nucleus by DAPI. The irradiation intensity was appropriately adjusted in accordance with the fluorescent pigment used so as to obtain sufficient observation intensity by an acoustic optical polarization element (Acoustic Optical Tunable Filter, AOTF). 2-NBDLG and 2-TRLG were excited by 488 nm Argon laser. The scan speed was 200 Hz or 400 Hz.
In fluorescence detection, a photomultiplier detector (PMT) 1 was used for detection of blue fluorescence by 2-PBDG or 2-PBLG and images were acquired in a wavelength detection range set at 415-580 nm in the case of detection of bicolor of 2-PBLG/2-TRLG and in a wavelength detection range set at 415-500 nm in the case of detection of tricolor of 2-PBLG/2-NBDLG/2-TRLG. For detection of green fluorescence by 2-NBDLG, PMT2 (called green channel, the same shall apply hereinafter) was used in a wavelength detection range of 500-580 nm. For detection of red fluorescence by 2-TRLG, PMT3 (called red channel, the same shall apply hereinafter) was used in a wavelength detection range of 580-740 nm. […]

[1] = mixed solution 100 μM 2-PBLG and 20 μM 2-TRLG

With `O=C(NC1C(O)OC(CO)[C@H](O)C1O)c1cc2cc(F)c(O)c(F)c2oc1=O` (stereo partly drawn) [2-PBLG, 2-Deoxy-2-((6,8-difluoro-7-hydroxycoumarin-3-yl)carboxamido)-L-glucose] the “fluorescence of cells in the cell cluster 8 minutes after initiation of washout” value [1] was “scattered around the outer edge of the center of a cell cluster”, the “fluorescence of cells in the cell cluster 12 minutes after initiation of washout” value [1] was “still multiple cells showing the strongly positive signal” and the “fluorescence of cells in the cell cluster 2 minutes after initiation of washout” value (mixed solution 100 μM 2-PBLG and 20 μM 2-TRLG, administered 5 minutes, MIN6 cluster day 13) was “extremely intense blue fluorescence is emitted from some cells”. For the same molecule, the “fluorescence of cells in the cancer cell cluster 12 minutes after completion of administration” value (mixed solution 100 μM 2-PBLG, 100 μM 2-NBDLG, 20 μM 2-TRLG) was “emit blue fluorescence by 2-PBLG continuously” and the “fluorescence of cells in the cancer cell cluster 8 minutes after completion of administration” value (mixed solution 100 μM 2-PBLG, 100 μM 2-NBDLG, 20 μM 2-TRLG, MIN6 cluster day 13) was “intense blue fluorescence by 2-PBLG is maintained continuously”.
